What all share (format): cell-based
For one assay, the system named is Streptococcus pyogenes. Nature of the assay: Minimum Inhibitory Concentration Method (MIC/MBC).
Assay [1] relates to Candida albicans (ATCC 10231). Description: Minimum Inhibitory Concentration Method (MIC/MBC), broth dilution; FIC index. On the procedure:
(§1) Minimum Inhibitory Concentration against bacterial S. aureus, P. aeruginosa, E. coli, and fungi A. brasiliensis and C. albicans were determined for Albizia amara seeds extract and the active marker compound bundmunchiamine C. The Minimum Inhibitory Concentration Method (MIC) is carried out following the general microbiological protocol to measure the lowest level of an antimicrobial agent that can inhibit microbial proliferation in liquid. Test microorganisms are prepared in liquid culture medium for bacteria or on agar for fungi. Suspensions of test microorganisms are standardized by dilution in appropriate broth solution, usually Mueller-Hinton broth. […]
(§2) In vitro antifungal combinations are commonly evaluated on the basis of the fractional inhibitory concentration (FIC) index, which represents the sum of the FIC of each substance tested. […]
(§3) The fractional inhibitory concentration (FIC) was calculated with the equation: FIC of drug A (FIC A)=MIC of drug A in combination/MIC of drug A alone, and FIC of drug B (FIC B)=MIC of drug B in combination/MIC of drug B alone]. The FIC Index (FICI), calculated as the sum of each FIC (YFIC). The calculated index of 1A:1M and 1A:3M against C. albicans were 0.187 and 0.292. […]
(In general: Broth dilution looks for growth in wells or tubes with falling amounts of substance.)

The test system of assay [2] is Aspergillus brasiliensis (ATCC 16404). Described as above. On the procedure:
as §1, §2, §3

Assay [3] deals with Pseudomonas aeruginosa (ATCC 9027). Description: Minimum Inhibitory Concentration Method (MIC/MBC), broth dilution. On the procedure: (§4) Minimum Inhibitory Concentration against bacterial S. aureus, P. aeruginosa, E. coli, and fungi A. brasiliensis and C. albicans were determined for Albizia amara seeds extract and the active marker compound bundmunchiamine C. The Minimum Inhibitory Concentration Method (MIC) is carried out following the general microbiological protocol to measure the lowest level of an antimicrobial agent that can inhibit microbial proliferation in liquid. Test microorganisms are prepared in liquid culture medium for bacteria or on agar for fungi. Suspensions of test microorganisms are standardized by dilution in appropriate broth solution, usually Mueller-Hinton broth. The test substance is prepared by conducting several serial 1:1 dilutions in a 96-well microtiter plate or in small test tubes, through Mueller-Hinton broth or other appropriate medium. All wells or tubes containing diluted test substances are inoculated with test microorganisms, individually, resulting in one additional and final dilution of the product in all test vessels. The microtiter plate or test tubes are incubated for 18-24 hours. After the incubation period, observations are made to determine the minimum concentration (MIC) which is the lowest concentration of test substance in a well where no turbidity (indicative of test microorganism growth) is observed and minimum bactericidal concentration (MBC).
(§5) The Albizia amara seeds extract RN368-31-MIX and budmunchiamine C were tested against five microorganisms required for category 2 including Staphylococcus aureus (ATCC 6538), Escherichia coli (ATCC 8739), Pseudomonas aeruginosa (ATCC 9027), Candida albicans (ATCC 10231), Aspergillus brasiliensis (ATCC 16404).

The test system of assay [4] is Staphylococcus aureus (ATCC 6538). The description is as above. As for the experimental part:
as §4, §5

Assay [5] deals with Escherichia coli (ATCC 8739). Described as above. As for the experimental part: as §4, §5

We go through one substance from US12161686B2, “Natural preservatives and antimicrobial agents, including compositions thereof” (Unigen, Inc., priority 2015, dated 2024).

Turning to budmunchiamine C, in the assay on Streptococcus pyogenes, the “MIC Streptococcus pyogenes” value is less than 0.97 mg/L. Further, the “MBC Candida albicans” value in assay [1] was 125 mg/L. The “MIC Aspergillus brasiliensis” value in assay [2] was determined as 125 mg/L. Also, in assay [3], the “MBC Pseudomonas aeruginosa” value was determined as 62.5 mg/L and the “MIC Pseudomonas aeruginosa” value was 62.5 mg/L. Besides, in assay [4], the “MBC Staphylococcus aureus” value turned out to be 31.25 mg/L and the “MIC Staphylococcus aureus” value is 31.25 mg/L. In addition, the “MBC Escherichia coli” value in assay [5] turned out to be 31.25 mg/L. For the same substance, the “MIC Escherichia coli” value in assay [5] (neutral condition) stood at 31.25 mg/L.
